For 5 molecules, EC50 results are on record in US20250320252A1 (The Scripps Research Institute, priority 2021, published 2025).

Like-named read-outs stand apart in the source and are kept apart here. Numbered stars: 1 amine (or outer) side, 2 acyl side, 3 side chain; on linkers, the order of the positions; unused ones are H or OH. Bridge positions count the residues as written; N and C are the ends. Square brackets hold non-standard residues; d marks the D form. Peptide text beside a SMILES is read from it. X2 = O=C(O)CCCCCCCCCCCCCCCCCCC(=O)N[C@@H](CCCCNC(=O)CCOCCOCCNC(=O)CCOCCOCCNC(=O)CCC(=O)N(CCNC(=O)C[*:1])CCNC(=O)C[*:2])C(=O)O; Aib = CC(C)(N)C(=O)O

Experiment [1] concerns the target T1, human GLP-1R (Homo sapiens, UniProt P43220).
T1 construct: expressed in transfected cells
As to the kind of experiment: In vitro receptor activation reporter assay (CRE-Luc), HEK293-GLP-1R-CRE. The class given is cell-based.
Protocol: (§1) The EC50 of each peptide was determined using GraphPad Prism 6 software (GraphPad, San Diego, CA).
HEK293 cells were infected with lentivirus encoding firefly luciferase gene under the control of cAMP responsive element (CRE) promoter (Qiagen, The Netherlands) and then were selected using 1 g/mL puromycin (Life Technologies, Carlsbad) for 1 week. The surviving cells (referred to as CRE-HEK293) were expanded and then transfected with a G418 selective mammalian expression plasmid encoding human GLP-1R. In brief, GLP-1R plasmid was transfected into CRE-HEK293 cells using Lipofectamine 2000 and selected with 400 g/mL Geneticin (Life Technologies, Carlsbad, CA). Single colony stable cell line overexpressing CRE-luciferase and GLP1R was then established for in vitro activity assay.

Experiment [2] has as its target T2, human GIPR (Homo sapiens, UniProt P48546).
T2 construct: expressed in transfected cells
T2 sequence (P48546 22-466): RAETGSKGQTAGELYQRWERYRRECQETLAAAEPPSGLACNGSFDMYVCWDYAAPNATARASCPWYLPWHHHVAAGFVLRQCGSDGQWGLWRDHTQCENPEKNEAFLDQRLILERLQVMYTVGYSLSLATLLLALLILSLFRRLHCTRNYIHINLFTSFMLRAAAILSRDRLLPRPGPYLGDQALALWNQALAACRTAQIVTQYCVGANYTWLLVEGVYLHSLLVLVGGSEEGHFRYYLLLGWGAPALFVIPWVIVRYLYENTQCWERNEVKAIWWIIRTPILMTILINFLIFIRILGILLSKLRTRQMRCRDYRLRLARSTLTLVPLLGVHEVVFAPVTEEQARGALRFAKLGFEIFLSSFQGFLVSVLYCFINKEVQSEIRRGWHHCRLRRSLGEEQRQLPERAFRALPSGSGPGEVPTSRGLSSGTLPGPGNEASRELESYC
As to the kind of experiment: In vitro receptor activation reporter assay (CRE-Luc), HEK293-GIPR-CRE. Format: cell-based. On the technique in general: In a reporter assay the amount or activity of a reporter protein is the signal.
Description: HEK293 cells were infected with lentivirus encoding firefly luciferase gene under the control of cAMP responsive element (CRE) promoter (Qiagen, The Netherlands) and then were selected using 1 g mL^−1 puromycin (Life Technologies, Carlsbad) for 1 week. The surviving cells (referred to as CRE-HEK293) were expanded and then transfected with a G418 selective mammalian expression plasmid encoding human GLP-1R or GIPR. In brief, GLP-1R or GIPR plasmid was transfected into CRE-HEK293 cells using Lipofectamine 2000 and selected with 400 g mL^−1 Geneticin (Life Technologies, Carlsbad, CA). Single colony stable cell line overexpressing CRE-luciferase and GLP-1R or GIPR (HEK293-GLP-1R-CRE or HEK293-GIPR-CRE) was then established for in vitro activity assay.
as §1

[3] abbreviates: unnumbered table (Table 10), average of runs, read-out: GLP1R (nM) [EC50] average.
The mark [4] stands for this setting: unnumbered table (Table 10), run 02/19, read-out: GLP1R (nM) [EC50] 02/19.
Where [5] appears, read: unnumbered table (Table 10), run 3/25, read-out: GLP1R (nM) [EC50] 3/25.
[6] abbreviates: unnumbered table (Table 10), run 03/26, read-out: GLP1R (nM) [EC50] 03/26.
Setting [7] is: unnumbered table (Table 10), average of runs, read-out: GIPR (nM) [EC50] average.
Where [8] appears, read: unnumbered table (Table 10), run 02/19, read-out: GIPR (nM) [EC50] 02/19.
The mark [9] stands for this setting: unnumbered table (Table 10), run 03/26, read-out: GIPR (nM) [EC50] 03/26.
Setting [10] is: Table 9, read-out: EC50 [nM] GLP1R.
Setting [11] is: Table 9, read-out: EC50 [nM] GIPR.

T1 sequence (P43220 24-463): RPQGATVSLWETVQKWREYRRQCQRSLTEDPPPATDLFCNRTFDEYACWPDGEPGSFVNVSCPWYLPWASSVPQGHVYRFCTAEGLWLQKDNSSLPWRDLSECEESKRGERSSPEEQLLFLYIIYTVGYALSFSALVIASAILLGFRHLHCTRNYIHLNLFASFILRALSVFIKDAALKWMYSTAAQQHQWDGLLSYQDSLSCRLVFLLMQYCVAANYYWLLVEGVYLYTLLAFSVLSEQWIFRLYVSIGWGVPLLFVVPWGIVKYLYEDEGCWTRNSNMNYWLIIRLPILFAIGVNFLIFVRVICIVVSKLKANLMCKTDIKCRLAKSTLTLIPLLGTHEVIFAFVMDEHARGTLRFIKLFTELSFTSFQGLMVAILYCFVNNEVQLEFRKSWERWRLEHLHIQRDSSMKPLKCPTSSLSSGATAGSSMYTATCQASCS

`CC[C@H](C)[C@H](NC(=O)[C@H](CC(C)C)NC(=O)[C@H](Cc1c[nH]c2ccccc12)NC(=O)[C@H](CC(N)=O)NC(=O)[C@@H](NC(=O)[C@H](Cc1ccccc1)NC(=O)[C@@H]1CSCC(=O)NCCN(C(=O)CCC(=O)NCCOCCOCCC(=O)NCCOCCOCCC(=O)NCCCC[C@H](NC(=O)CCCCCCCCCCCCCCCCCCC(=O)O)C(=O)O)CCNC(=O)CSC[C@H](NC(=O)[C@H](Cc2ccc(O)cc2)NC(=O)[C@@H](NC(=O)[C@H](CO)NC(=O)[C@@H](NC(=O)[C@H](CC(=O)O)NC(=O)[C@H](CO)NC(=O)[C@@H](NC(=O)[C@H](Cc2ccccc2)NC(=O)[C@@H](NC(=O)CNC(=O)[C@H](CCC(=O)O)NC(=O)C(C)(C)NC(=O)[C@@H](N)Cc2ccc(O)cc2)[C@@H](C)O)[C@@H](C)CC)C(C)C)[C@@H](C)CC)C(=O)N[C@@H](CC(=O)O)C(=O)N[C@@H](CCCCN)C(=O)N[C@@H](CCC(N)=O)C(=O)N[C@@H](C)C(=O)N[C@@H](C)C(=O)NC(C)(C)C(=O)N1)C(C)C)C(=O)N[C@@H](C)C(=O)NCC(=O)NCC(=O)N1CCC[C@H]1C(=O)N[C@@H](CO)C(=O)N[C@@H](CO)C(=O)NCC(=O)N[C@@H](C)C(=O)N1CCC[C@H]1C(=O)N1CCC[C@H]1C(=O)N1CCC[C@H]1C(=O)N[C@@H](CO)C(N)=O` [7I, 10V, 27I, C(14-21) - C20L5A, YAibEGT-FISDV-SIYXD-KQAAAib-XFVNW-LIAGG-PSSGA-PPPS-NH2 (where each X is C)] (H-Y[Aib]EGTFISDVSIYCDKQAA[Aib]CFVNWLIAGGPSSGAPPPS-NH2; linker 14-21 via X2): the EC50 in experiment [1] (Table 8, read-out: EC50 [nM] GLP1R) is approximately 13700 nM; in experiment [2] (Table 8, read-out: EC50 [nM] GIPR), 303 nM.
Regarding `CC[C@H](C)[C@H](NC(=O)[C@H](CC(C)C)NC(=O)[C@H](Cc1c[nH]c2ccccc12)NC(=O)[C@@H]1CSCC(=O)NCCN(C(=O)CCC(=O)NCCOCCOCCC(=O)NCCOCCOCCC(=O)NCCCC[C@H](NC(=O)CCCCCCCCCCCCCCCCCCC(=O)O)C(=O)O)CCNC(=O)CSC[C@H](NC(=O)[C@H](CCCCN)NC(=O)[C@H](CC(=O)O)NC(=O)[C@H](CC(C)C)NC(=O)[C@H](Cc2ccc(O)cc2)NC(=O)[C@@H](NC(=O)[C@H](CO)NC(=O)[C@H](Cc2ccc(O)cc2)NC(=O)[C@H](CC(=O)O)NC(=O)[C@H](CC(N)=O)NC(=O)[C@@H](NC(=O)[C@H](Cc2ccc(O)cc2)NC(=O)[C@@H](NC(=O)CNC(=O)[C@H](CCC(=O)O)NC(=O)C(C)(C)NC(=O)[C@@H](N)Cc2ccc(O)cc2)[C@@H](C)O)[C@@H](C)O)[C@@H](C)CC)C(=O)N[C@@H](C)C(=O)N[C@@H](C)C(=O)NC(C)(C)C(=O)N[C@@H](CCC(=O)O)C(=O)N[C@@H](Cc2ccccc2)C(=O)N[C@@H](C(C)C)C(=O)N1)C(=O)N[C@@H](C)C(=O)NCC(=O)NCC(=O)N1CCC[C@H]1C(=O)N[C@@H](CO)C(=O)N[C@@H](CO)C(=O)NCC(=O)N[C@@H](C)C(=O)N1CCC[C@H]1C(=O)N1CCC[C@H]1C(=O)N1CCC[C@H]1C(=O)N[C@@H](CO)C(N)=O` [6Y, 8N, 27I, C(17-24) - C20L5A, YAibEGT-YTNDY-SIYLD-KXAAAib-EFVXW-LIAGG-PSSGA-PPPS-NH2 (where each X is C)] (H-Y[Aib]EGTYTNDYSIYLDKCAA[Aib]EFVCWLIAGGPSSGAPPPS-NH2; linker 17-24 via X2), the EC50 in experiment [1] (setting [3]) is 0.08 nM; in experiment [1] (setting [4]), 0.06 nM; in experiment [1] (setting [5]) it was 0.11 nM; in experiment [1] (setting [6]), 0.07 nM; in experiment [2] (setting [7]), 2.88 nM; in experiment [2] (setting [8]), 2.48 nM. Further, the EC50 in experiment [2] (setting [9]) was found to be 3.29 nM.
On to `CC[C@H](C)[C@H](NC(=O)[C@H](CO)NC(=O)[C@H](Cc1ccc(O)cc1)NC(=O)[C@H](CC(=O)O)NC(=O)[C@H](CO)NC(=O)[C@@H](NC(=O)[C@H](Cc1ccccc1)NC(=O)[C@@H](NC(=O)CNC(=O)[C@H](CCC(=O)O)NC(=O)C(C)(C)NC(=O)[C@@H](N)Cc1ccc(O)cc1)[C@@H](C)O)[C@@H](C)O)C(=O)N[C@@H](Cc1ccc(O)cc1)C(=O)N[C@@H](CC(C)C)C(=O)N[C@@H](CC(=O)O)C(=O)N[C@@H](CCCCN)C(=O)N[C@H]1CSCC(=O)NCCN(C(=O)CCC(=O)NCCOCCOCCC(=O)NCCOCCOCCC(=O)NCCCC[C@H](NC(=O)CCCCCCCCCCCCCCCCC(=O)O)C(=O)O)CCNC(=O)CSC[C@@H](C(=O)N[C@@H](Cc2c[nH]c3ccccc23)C(=O)N[C@@H](CC(C)C)C(=O)N[C@@H](CC(C)C)C(=O)N[C@@H](C)C(=O)NCC(=O)NCC(=O)N2CCC[C@H]2C(=O)N[C@@H](CO)C(=O)N[C@@H](CO)C(=O)NCC(=O)N[C@@H](C)C(=O)N2CCC[C@H]2C(=O)N2CCC[C@H]2C(=O)N2CCC[C@H]2C(=O)N[C@@H](CO)C(N)=O)NC(=O)[C@H](C(C)C)NC(=O)[C@H](Cc2ccccc2)NC(=O)[C@H](CCC(=O)O)NC(=O)C(C)(C)NC(=O)[C@H](C)NC(=O)[C@H](C)NC1=O` [C(17-24) - L5A, YAibEGT-FTSDY-SIYLD-KXAAAib-EFVXW-LLAGG-PSSGA-PPPS-NH2 (where each X is C)], for which the EC50 stood at 0.11 nM in experiment [1] (setting [10]) and 0.05 nM in experiment [2] (setting [11]).
In the case of `CC[C@H](C)[C@H](NC(=O)[C@H](CC(C)C)NC(=O)[C@H](Cc1c[nH]c2ccccc12)NC(=O)[C@H](CC(N)=O)NC(=O)[C@@H](NC(=O)[C@H](Cc1ccccc1)NC(=O)[C@@H]1CSCC(=O)NCCN(C(=O)CCC(=O)NCCOCCOCCC(=O)NCCOCCOCCC(=O)NCCCC[C@H](NC(=O)CCCCCCCCCCCCCCCCCCC(=O)O)C(=O)O)CCNC(=O)CSC[C@H](NC(=O)[C@H](Cc2ccc(O)cc2)NC(=O)[C@@H](NC(=O)[C@H](CO)NC(=O)[C@H](Cc2ccc(O)cc2)NC(=O)[C@H](CC(=O)O)NC(=O)[C@H](CO)NC(=O)[C@@H](NC(=O)[C@H](Cc2ccc(O)cc2)NC(=O)[C@@H](NC(=O)CNC(=O)[C@H](CCC(=O)O)NC(=O)C(C)(C)NC(=O)[C@@H](N)Cc2ccc(O)cc2)[C@@H](C)O)[C@@H](C)O)[C@@H](C)CC)C(=O)N[C@@H](CC(=O)O)C(=O)N[C@@H](CCCCN)C(=O)N[C@@H](CCC(N)=O)C(=O)N[C@@H](C)C(=O)N[C@@H](C)C(=O)NC(C)(C)C(=O)N1)C(C)C)C(=O)N[C@@H](C)C(=O)NCC(=O)NCC(=O)N1CCC[C@H]1C(=O)N[C@@H](CO)C(=O)N[C@@H](CO)C(=O)NCC(=O)N[C@@H](C)C(=O)N1CCC[C@H]1C(=O)N1CCC[C@H]1C(=O)N1CCC[C@H]1C(=O)N[C@@H](CO)C(N)=O` [6Y, 271, C(14-21) - C20L5A, YAibEGT-YTSDY-SIYXD-KQAAAib-XFVNW-LIAGG-PSSGA-PPPS-NH2 (where each X is C)] (H-Y[Aib]EGTYTSDYSIYCDKQAA[Aib]CFVNWLIAGGPSSGAPPPS-NH2; linker 14-21 via X2), the EC50 in experiment [1] (GLP1R (nM) [EC50] 02/19, unnumbered table (Table 10), run 02/19) worked out at 0.04 nM; in experiment [1] (GLP1R (nM) [EC50] 3/25, unnumbered table (Table 10), run 3/25), 0.07 nM; in experiment [1] (GLP1R (nM) [EC50] 03/26, unnumbered table (Table 10), run 03/26), 0.07 nM; in experiment [1] (GLP1R (nM) [EC50] average, unnumbered table (Table 10), average of runs), 0.06 nM; in experiment [2] (GIPR (nM) [EC50] 02/19, unnumbered table (Table 10), run 02/19), 0.5 nM.
In the case of `CC[C@H](C)[C@H](NC(=O)[C@H](CO)NC(=O)[C@H](Cc1ccc(O)cc1)NC(=O)[C@H](CC(=O)O)NC(=O)[C@H](CO)NC(=O)[C@@H](NC(=O)[C@H](Cc1ccccc1)NC(=O)[C@@H](NC(=O)CNC(=O)[C@H](CCC(=O)O)NC(=O)C(C)(C)NC(=O)[C@@H](N)Cc1ccc(O)cc1)[C@@H](C)O)[C@@H](C)O)C(=O)N[C@@H](Cc1ccc(O)cc1)C(=O)N[C@@H](CC(C)C)C(=O)N[C@@H](CC(=O)O)C(=O)N[C@@H](CCCCN)C(=O)N[C@H]1CSCC(=O)NCCN(C(=O)CCC(=O)NCCOCCOCCC(=O)NCCOCCOCCC(=O)NCCCC[C@H](NC(=O)CCCCCCCCCCCCCCCCCCC(=O)O)C(=O)O)CCNC(=O)CSC[C@@H](C(=O)N[C@@H](Cc2c[nH]c3ccccc23)C(=O)N[C@@H](CC(C)C)C(=O)N[C@@H](CC(C)C)C(=O)N[C@@H](C)C(=O)NCC(=O)NCC(=O)N2CCC[C@H]2C(=O)N[C@@H](CO)C(=O)N[C@@H](CO)C(=O)NCC(=O)N[C@@H](C)C(=O)N2CCC[C@H]2C(=O)N2CCC[C@H]2C(=O)N2CCC[C@H]2C(=O)N[C@@H](CO)C(N)=O)NC(=O)[C@H](C(C)C)NC(=O)[C@H](Cc2ccccc2)NC(=O)[C@H](CCC(=O)O)NC(=O)C(C)(C)NC(=O)[C@H](C)NC(=O)[C@H](C)NC1=O` [C(17-24) - C20L5A, YAibEGT-FTSDY-SIYLD-KXAAAib-EFVXW-LLAGG-PSSGA-PPPS-NH2 (where each X is C)], the EC50 in experiment [1] (setting [10]) worked out at 0.11 nM; in experiment [1] (setting [3]) it was 0.09 nM; in experiment [1] (setting [4]), 0.07 nM; in experiment [1] (setting [5]), 0.1 nM; in experiment [1] (setting [6]), 0.09 nM; in experiment [2] (setting [11]) it was 0.05 nM. Moreover, the EC50 was determined as 0.03 nM in experiment [2] (setting [7]); 0.04 nM in experiment [2] (setting [8]); 0.02 nM in experiment [2] (unnumbered table (Table 10), run 03/25, read-out: GIPR (nM) [EC50] 03/25); 0.03 nM in experiment [2] (setting [9]).
